Where two headings read alike, the source gives them in different places.

This is an account of results in US20100331348A1, “TROPANE DERIVATIVES USEFUL AS PESTICIDES” (SYNGENTA CROP PROTECTION, INC., priority 2007, published 2010).

Data set [1] deals with Puccinia recondita f.sp. tritici. The data set is described as follows: Puccinia recondita f.sp. tritici (wheat brown rust) leaf disk assay. It is filed as in vivo. To be noted: foliar, 216 h, preventive, nine days after inoculation, read-out: control of fungal infection, Puccinia recondita f.sp. tritici.
For the next data set, the system named is Tetranychus urticae. To be noted: foliar, 192 h, read-out: control of Tetranychus urticae.
Another data set relates to Pyricularia oryzae. The data set is described as follows: whole plant or invertebrate. The conditions noted are these: foliar, 96 h. Format: in vivo.
Data set [2] has as its system Erysiphe graminis f.sp. tritici. The data set is described as follows: Erysiphe graminis f.sp. tritici (wheat powdery mildew) leaf disk assay. It is filed as in vivo. To be noted: Blumeria graminis, foliar, 96 h, preventive, four days after inoculation, read-out: control of fungal infection, Erysiphe graminis fsp. tritici.
A further data set deals with Aedes aegypti. The data set is described as follows: Aedes aegypti (Yellow fever mosquito) larvae test. To be noted: 48 h. Format: in vivo.
A further data set deals with Plasmopara viticola. The data set is described as follows: Plasmopara viticola (downy mildew of grapevine) leaf disk assay. Format: in vivo. To be noted: foliar, 168 h, preventive, seven days after inoculation, read-out: control of fungal infection, Plasmopara viticola.
Setting [3] is: read-out: control of fungal infection, Pyricularia oryzae (at least 80% list).
[4] abbreviates: read-out: control of fungal infection, Pyricularia oryzae (at least 60% list).

Take `OC1(CC#Cc2ccccc2)CC2CCC(C1)N2c1ncnc2sccc12` (stereo not shown) [Example 7.15]: the melting point amounted to 173 °C. The pest or weed control at 200 ppm in data set [1] is no less than 80%.
Take `CCc1ncnc(N2C3CCC2CC(=NOCc2ccc(C(F)(F)F)c(F)c2)C3)c1Cl` [Example 5.86]: the pest or weed control at 200 ppm (with Tetranychus urticae; in data set [1]; in the data set on Pyricularia oryzae (setting [3])) was no less than 80% in each case.
Compound `Cc1nsc(N2[C@@H]3CC[C@H]2CC(Oc2ccc(C(F)(F)F)cn2)C3)n1` (stereo partly shown) [Example 2.204] returned a melting point of 169 °C. Besides, the pest or weed control at 200 ppm in data set [1] is no less than 80%.
As for `FC(F)(F)c1ccnc(OC2C[C@H]3CC[C@@H](C2)N3c2ncnc3sccc23)c1` (stereo partly shown) [Example 2.51], the melting point stood at 172 °C. Moreover, the pest or weed control at 200 ppm with Pyricularia oryzae (setting [4]) is no less than 60%.
Turning to `Cc1noc2ncnc(N3[C@@H]4CC[C@H]3CC(Oc3cccc(C(F)(F)F)n3)C4)c12` (stereo partly shown) [Example 2.121], the melting point was 159 °C. In data set [2], the pest or weed control at 200 ppm is no less than 80%. In addition, the pest or weed control at 200 ppm in data set [1] was no less than 80%.
As to `CCc1ncnc(C(C)c2ncnc(N3C4CCC3CC(=NO)C4)c2Cl)c1Cl` (stereo not shown) [Example 5.4], the melting point amounted to 162 °C. Besides, the pest or weed control at 200 ppm in data set [2] is no less than 80%.
With `Fc1cc(F)c(CON=C2CC3CCC(C2)N3c2ncnc3sccc23)cc1F` [Example 5.226], the melting point turned out to be 106 °C. Moreover, the pest or weed control at 200 ppm in data set [2] is no less than 80%. Further, the pest or weed control at 200 ppm in data set [1] is no less than 80%.
On to `CCc1ncnc(N2C3CCC2CC(O)(CC#C[Si](C)(C)C)C3)c1Cl` (stereo not shown) [Example 7.34], for which the melting point worked out at 85 °C. Moreover, the pest or weed control at 200 ppm in the data set with Pyricularia oryzae (setting [4]) is no less than 60%.
Turning to `FC(F)(F)c1cccc(OC2C[C@H]3CC[C@@H](C2)N3c2cc(Cl)ncn2)n1` (stereo partly shown) [Example 2.90], the melting point came out at 136 °C. Also, in data set [2], the pest or weed control at 200 ppm is no less than 80%.
For the compound `Cn1nc(C(F)(F)F)cc1C(=O)N1[C@@H]2CC[C@H]1CC(Oc1cc(C(F)(F)F)ccn1)C2` (stereo partly shown) [Example 2.217], the melting point is 122 °C. For the same compound, the pest or weed control at 200 ppm in data set [2] is no less than 80%.
As to `FC(F)(F)c1cnc(ON=C2CC3CCC(C2)N3c2ncnc3sccc23)c(Cl)c1` [Example 5.207], the melting point stood at 156 °C. Also, in data set [2], the pest or weed control at 200 ppm was no less than 80%. Also, the pest or weed control at 200 ppm in data set [1] is no less than 80%. For the same compound, in the data set with Pyricularia oryzae (setting [4]), the pest or weed control at 200 ppm is no less than 60%.
As for `N#CCC1CC2CCC(C1)N2c1ncnc2sccc12` (stereo not shown) [Example 7.1], the pest or weed control at 200 ppm with Tetranychus urticae was no less than 80%.
`O=C1c2ccccc2C(=O)N1OC1C[C@H]2CC[C@@H](C1)N2c1ncnc2sccc12` (stereo partly shown) [Example 2.64] came in with a melting point of 190 °C. Moreover, the pest or weed control at 200 ppm in data set [1] is no less than 80%. Besides, in the data set on Pyricularia oryzae (setting [4]), the pest or weed control at 200 ppm is no less than 60%. Also, the pest or weed control at 200 ppm with Pyricularia oryzae (setting [3]) was no less than 80%.
For the compound `CCc1ncnc(N2C3CCC2CC(=NOCc2ccc(SC(F)(F)F)cc2)C3)c1Cl` [Example 5.99], the pest or weed control at 200 ppm (with Tetranychus urticae; in data set [2]; in data set [1]) was no less than 80% in each case.
In turn, `Cc1nsc(N2[C@@H]3CC[C@H]2CC(Oc2ccc(C(F)(F)F)cn2)C3)c1Cl` (stereo partly shown) [Example 2.199] showed a melting point of 46 °C. The pest or weed control at 200 ppm in data set [2] is no less than 80%.
The compound `CCc1ncnc(N2C3CCC2CC(=CC#N)C3)c1Cl` [Example 3.1] yielded a melting point of 73 °C. The pest or weed control at 200 ppm in data set [1] is no less than 80%.
For `Cc1nn(C)c2nccc(N3[C@@H]4CC[C@H]3CC(Oc3ccc(C(F)(F)F)cn3)C4)c12` (stereo partly shown) [Example 2.194], the pest or weed control at 200 ppm in the data set on Tetranychus urticae is no less than 80%.
For `FC(F)(F)c1ccnc(OC2C[C@H]3CC[C@@H](C2)N3c2ncnc3ccsc23)c1` (stereo partly shown), the melting point is 211 °C.
In the case of `Cc1nn(C)c2nccc(N3[C@@H]4CC[C@H]3CC(Oc3ncc(Cl)cc3F)C4)c12` (stereo partly shown) [Example 1.252], the melting point was found to be 112 °C. For the same compound, the pest or weed control at 200 ppm in data set [2] was no less than 80%. Also, the pest or weed control at 200 ppm in the data set on Pyricularia oryzae (setting [4]) was no less than 60%.
`Cn1cc(C(=O)N2[C@@H]3CC[C@H]2CC(Oc2ccc(C(F)(F)F)cn2)C3)c(C(F)(F)F)c1` (stereo partly shown) [2.223]: the melting point is 153 °C.
With `N#Cc1ccc(OC2C[C@H]3CC[C@@H](C2)N3c2ncnc3sccc23)cc1F` (stereo partly shown) [Example 1.259], the pest or weed control at 200 ppm (in the data set on Tetranychus urticae; in data set [1]) was no less than 80% throughout. In addition, the pest or weed control at 2 ppm in the data set with Aedes aegypti is no less than 80%.
`N#Cc1sc(N2[C@@H]3CC[C@H]2CC(Oc2cccc(C(F)(F)F)n2)C3)nc1C(F)(F)F` (stereo partly shown): the melting point stood at 147 °C.
The compound `N#Cc1sc(N2[C@@H]3CC[C@H]2CC(Oc2ccc(C(F)(F)F)cn2)C3)nc1C(F)(F)F` (stereo partly shown) returned a melting point of 135 °C.
In the case of `CCOC(=O)C=C1CC2CCC(C1)N2c1ncnc2sccc12` [Example 3.34], the melting point was 101 °C. Besides, in the data set on Plasmopara viticola, the pest or weed control at 200 ppm was no less than 80%. Besides, the pest or weed control at 200 ppm in data set [1] was no less than 80%. The pest or weed control at 200 ppm in the data set with Pyricularia oryzae (setting [4]) was no less than 60%. Besides, the pest or weed control at 200 ppm in the data set with Pyricularia oryzae (setting [3]) is no less than 80%.
The compound `CCc1ncnc(N2C3CCC2CC(CC(=O)O)C3)c1Cl` (stereo not shown) displayed a melting point of 109 °C.
On the same count and under the same terms, next, `Cc1csc2c(N3[C@@H]4CC[C@H]3CC(Oc3cc(C(F)(F)F)ccn3)C4)ncnc12` (stereo partly shown): 76 °C; `Cc1nn(C)c2nccc(N3[C@@H]4CC[C@H]3CC(Oc3ccc(Cl)cc3)C4)c12` (stereo partly shown): 155 °C.
On to `Cc1nn(C)c2nccc(N3C4CCC3CC(=NOc3ncc(C(F)(F)F)cc3Cl)C4)c12` [Example 5.261], for which the melting point is 153 °C. For the same compound, the pest or weed control at 200 ppm in data set [2] was no less than 80%.
With `CCc1ncnc(N2C3CCC2CC(=NO)C3)c1Cl`, the melting point was 73 °C.
With `CCc1ncnc(N2C3CCC2CC(=NOCc2ccc(-c4ccccc4)cc2)C3)c1Cl` [Example 5.22], the pest or weed control at 200 ppm (with Tetranychus urticae; in data set [2]; in data set [1]) was no less than 80% each time.
`Cc1nn(C)c2nccc(N3C4CCC3CC(=NO)C4)c12` gave a melting point of 201 °C.
The compound `Cc1nn(C)c2nccc(N3[C@@H]4CC[C@H]3CC(Oc3nc(C(F)(F)F)cs3)C4)c12` (stereo partly shown) [Example 2.107] returned a melting point of 184 °C. Besides, in data set [2], the pest or weed control at 200 ppm is no less than 80%.
For `CS(=O)(=O)OC1C[C@H]2CC[C@@H](C1)N2c1ncnc2sccc12` (stereo partly shown) [Example 2.10] the same measures were 135 °C and no less than 80%.
With `CCc1ncnc(N2[C@@H]3CC[C@H]2CC(Oc2nc(Br)ccc2Cl)C3)c1Cl` (stereo partly shown) [Example 1.167], the pest or weed control at 200 ppm (in the data set with Tetranychus urticae; in data set [2]) was no less than 80% throughout.
`CC(C)(C)c1ccc(CON=C2CC3CCC(C2)N3c2ncnc3sccc23)cc1` [Example 5.167]: the pest or weed control at 200 ppm (with Tetranychus urticae; in data set [2]; in data set [1]) was no less than 80% throughout.
Regarding `Cc1cc(N2[C@@H]3CC[C@H]2CC(Oc2cccc(C(F)(F)F)n2)C3)n2ncnc2n1` (stereo partly shown) [Example 2.101], the melting point worked out at 212 °C. For the same compound, the pest or weed control at 200 ppm in the data set with Plasmopara viticola was no less than 80%.
As for `Clc1ccc(OC2C[C@H]3CC[C@@H](C2)N3c2ncnc3sccc23)cc1` (stereo partly shown), the melting point turned out to be 184 °C.
Same read-out and setting: the figure for `CCc1ncnc(N2C3CCC2CC(CC(N)=S)C3)c1Cl` (stereo not shown) is 160 °C.
Still for that read-out and setting: next, `O=C1c2ccccc2C(=O)N1OC1C[C@H]2CC[C@@H](C1)N2c1ncnc2sccc12` (stereo partly shown) [1.73]: 243 °C.
With `Cc1cc(N2[C@@H]3CC[C@H]2CC(Oc2ccc(C(F)(F)F)cn2)C3)n2ncnc2n1` (stereo partly shown) [Example 2.139], the melting point is 240 °C. The pest or weed control at 200 ppm in data set [2] is no less than 80%. In addition, the pest or weed control at 200 ppm in the data set with Pyricularia oryzae (setting [4]) is no less than 60%.
For the compound `FC(F)(F)c1ccc(ON=C2CC3CCC(C2)N3c2ncnc3sccc23)nc1` [Example 5.170], the pest or weed control at 200 ppm with Tetranychus urticae is no less than 80%; in data set [2] it was no less than 80%; in data set [1] it was no less than 80%; in the data set with Pyricularia oryzae (setting [4]), no less than 60%.
In the case of `FC(F)(F)c1ccnc(OC2C[C@H]3CC[C@@H](C2)N3c2ccncn2)c1` (stereo partly shown) [Example 2.87], the melting point worked out at 108 °C. In addition, the pest or weed control at 200 ppm in the data set on Pyricularia oryzae (setting [4]) is no less than 60%.
For the compound `FC(F)(F)c1ccc(-c2nc(CON=C3CC4CCC(C3)N4c3ncnc4sccc34)no2)cc1` [Example 5.260], the pest or weed control at 200 ppm (in the data set on Tetranychus urticae; in data set [2]; in data set [1]) was no less than 80% each time.
Regarding `Cc1cc(C(F)(F)F)cc(ON=C2CC3CCC(C2)N3c2ncnc3sccc23)n1` [Example 5.196], the melting point amounted to 167 °C. Besides, the pest or weed control at 200 ppm in data set [2] was no less than 80%. Besides, the pest or weed control at 200 ppm in data set [1] was no less than 80%.
In turn, `N#Cc1c(Cl)nsc1N1[C@@H]2CC[C@H]1CC(Oc1cc(C(F)(F)F)ccn1)C2` (stereo partly shown) [Example 2.196] gave a melting point of 103 °C. Moreover, the pest or weed control at 200 ppm in data set [2] was no less than 80%.
Regarding `CCc1ncnc(N2[C@@H]3CC[C@H]2CC(ON)C3)c1Cl` (stereo partly shown), the melting point is 70 °C.
Regarding `CCC(=O)c1ccc(OC2C[C@H]3CC[C@@H](C2)N3c2ncnc3sccc23)cc1` (stereo partly shown) [Example 2.37], the pest or weed control at 200 ppm (in the data set on Tetranychus urticae; in data set [2]) was no less than 80% throughout.
The compound `O=C(NC1C[C@H]2CC[C@@H](C1)N2c1ncnc2sccc12)c1cccnc1` (stereo partly shown) gave a melting point of 170 °C.
